Several values for one entry are separate records, joined by “and”; a condition that tells them apart may be missing. Equal values may be shown once. Toxic doses and inconclusive results are not listed.

The test has as its system P388 leukemia ip, CD2F1 mice, survival T/C. As to the kind of experiment: NCI In Vivo Anticancer Drug Screen. Data for tumor model P388 Leukemia (intraperitoneal) in CD2F1 (CDF1) mice. The settings on record: endpoint: median survival time, higher = longer survival. Put shortly: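 Mice carrying the transplanted tumor received test compound or vehicle. Survival was recorded in each group, and the value is the treated-group measurement divided by that of the vehicle-treated control group.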

[1] abbreviates: dose: 100.0 mg/kg/injection, schedule: Q01DX001 (ip), vehicle: saline with Tween-80.
Where [2] appears, read: dose: 200.0 mg/kg/injection, schedule: Q01DX001 (ip), vehicle: saline with Tween-80.
[3] abbreviates: dose: 400.0 mg/kg/injection, schedule: Q01DX001 (ip), vehicle: saline with Tween-80.
The mark [4] stands for this setting: dose: 50.0 mg/kg/injection, schedule: Q01DX009 (ip), vehicle: Klucel (hydroxypropylcellulose) (HPC).
The mark [5] stands for this setting: dose: 100.0 mg/kg/injection, schedule: Q01DX009 (ip), vehicle: Klucel (hydroxypropylcellulose) (HPC).
[6] abbreviates: dose: 50.0 mg/kg/injection, schedule: Q01DX005 (ip), vehicle: saline with Tween-80.
Setting [7] is: dose: 100.0 mg/kg/injection, schedule: Q01DX005 (ip), vehicle: saline with Tween-80.
Setting [8] is: dose: 200.0 mg/kg/injection, schedule: Q01DX005 (ip), vehicle: saline with Tween-80.
[9] abbreviates: dose: 50.0 mg/kg/injection, schedule: Q01DX005 (ip), vehicle: Klucel (hydroxypropylcellulose) (HPC).
[10] abbreviates: dose: 100.0 mg/kg/injection, schedule: Q01DX005 (ip), vehicle: Klucel (hydroxypropylcellulose) (HPC).
Setting [11] is: dose: 12.5 mg/kg/injection, schedule: Q01DX005 (ip), vehicle: saline.
The mark [12] stands for this setting: dose: 25.0 mg/kg/injection, schedule: Q01DX005 (ip), vehicle: saline.
[13] abbreviates: dose: 50.0 mg/kg/injection, schedule: Q01DX005 (ip), vehicle: saline.
Where [14] appears, read: dose: 15.0 mg/kg/injection, schedule: Q01DX005 (ip), vehicle: saline with Tween-80.
Setting [15] is: dose: 30.0 mg/kg/injection, schedule: Q01DX005 (ip), vehicle: saline with Tween-80.
[16] abbreviates: dose: 60.0 mg/kg/injection, schedule: Q01DX005 (ip), vehicle: saline with Tween-80.
Setting [17] is: dose: 100.0 mg/kg/injection, schedule: Q01DX009 (ip), vehicle: saline.

Regarding `Cc1ccc(S(=O)(=O)CS(N)(=O)=O)cc1`, the T/C is 99 % of control under setting [1], 118 % of control under setting [2] and 97 % of control under setting [3].
Regarding `COC(=O)CCN1CCCC1CC(O)/C=C/c1ccccc1` (stereo unspecified), the T/C reads like this: under setting [1], 93 % of control; under setting [2], 100 % of control; under setting [3], 106 % of control.
For the compound `CN(C)c1ccc(C(=O)Cc2ccc3ccccc3n2)cc1`, the T/C is, setting by setting: under setting [4], 92 % of control; under setting [5], 89 % of control; (dose: 200.0 mg/kg/injection, schedule: Q01DX009 (ip), vehicle: Klucel (hydroxypropylcellulose) (HPC)) 102 % of control.
As to `Cn1c(=O)n2n(c1=O)C1(CCO)CCC2(CCO)CC1`, the T/C under setting [6] is 99 % of control, the T/C under setting [7] is 103 % of control and the T/C under setting [8] is 100 % of control.
`Cn1cnc([N+](=O)[O-])c1[Se]c1nc(N)nc2nc[nH]c12`: the T/C runs as follows: (dose: 3.12 mg/kg/injection, schedule: Q01DX009 (ip), vehicle: dextrose) 117 % of control; (dose: 3.12 mg/kg/injection, schedule: Q01DX009 (ip), vehicle: water) 104 % of control; (dose: 6.25 mg/kg/injection, schedule: Q01DX009 (ip), vehicle: dextrose) 112 % of control; (dose: 6.25 mg/kg/injection, schedule: Q01DX009 (ip), vehicle: water) 116 % of control; (dose: 25.0 mg/kg/injection, schedule: Q01DX009 (ip), vehicle: dextrose) 161 % of control; (dose: 25.0 mg/kg/injection, schedule: Q01DX009 (ip), vehicle: water) 106 % of control. Moreover, the T/C reads like this: (dose: 50.0 mg/kg/injection, schedule: Q01DX009 (ip), vehicle: dextrose) 123 % of control; (dose: 50.0 mg/kg/injection, schedule: Q01DX009 (ip), vehicle: water) 116 % of control.
As to `O=C(CN1CCCCCC1)Nc1ccc2c(c1)C(=O)c1ccc(NC(=O)CN3CCCCCC3)cc1C2=O`, the T/C runs as follows: under setting [9], 89 % of control; (dose: 50.0 mg/kg/injection, schedule: Q01DX005 (ip), vehicle: acid diluted with saline) 97 % of control; under setting [10], 89 % of control; (dose: 100.0 mg/kg/injection, schedule: Q01DX005 (ip), vehicle: acid diluted with saline) 99 % of control; (dose: 200.0 mg/kg/injection, schedule: Q01DX005 (ip), vehicle: acid diluted with saline) 100 % of control.
As for `[Cl][Mn][Cl].[NH-]NP(=S)(N[NH-])Oc1ccccc1.[NH-]NP(=S)(N[NH-])Oc1ccccc1`, the T/C under setting [11] was 99 % of control, the T/C under setting [12] was 100 % of control and the T/C under setting [13] was 108 % of control.
On to `O=C1SC(=NC2CCCCC2)N(C2CCCCC2)/C1=C1\C(=O)SC(=NC2CCCCC2)N1C1CCCCC1`, for which the T/C under setting [14] is 92 % of control and the T/C under setting [15] is 90 % of control.
Consider `CC(CO)CCC1OC2CC3C4CC=C5CC(O)CCC5(C)C4CCC3(C)C2C1C` (stereo unspecified), for which the T/C is 98 % of control (dose: 2.25 mg/kg/injection, schedule: Q01DX005 (ip), vehicle: Klucel (hydroxypropylcellulose) (HPC)); 100 % of control (dose: 4.5 mg/kg/injection, schedule: Q01DX005 (ip), vehicle: Klucel (hydroxypropylcellulose) (HPC)); 88 % of control (dose: 9.0 mg/kg/injection, schedule: Q01DX005 (ip), vehicle: Klucel (hydroxypropylcellulose) (HPC)); 87 % of control (dose: 36.0 mg/kg/injection, schedule: Q01DX005 (ip), vehicle: Klucel (hydroxypropylcellulose) (HPC)).
On to `O=C(CCN1CCCC1)Nc1nc(-c2ccc(Cl)cc2)cs1`, for which the T/C is 102 % of control under setting [6], 93 % of control under setting [7] and 94 % of control under setting [8].
Regarding `CC(C)C1=C(O)C2=C(C(=O)C1=O)C1(C)CCCC(C)(C)C1C(O)C2OC=O` (stereo unspecified), the T/C is, setting by setting: (dose: 12.5 mg/kg/injection, schedule: Q01DX005 (ip), vehicle: Klucel (hydroxypropylcellulose) (HPC)) 93 % of control; (dose: 25.0 mg/kg/injection, schedule: Q01DX005 (ip), vehicle: Klucel (hydroxypropylcellulose) (HPC)) 109 % of control; under setting [9], 107 % of control; under setting [10], 111 % of control.
Regarding `Cc1cccc(C)c1Nc1nnc(-c2ccccc2)s1`, the T/C runs as follows: under setting [14], 104 % of control; under setting [15], 103 % of control; under setting [16], 94 % of control.
In the case of `O=C(NCSC1=NCCS1)NCSC1=NCCS1`, the T/C is, setting by setting: (dose: 50.0 mg/kg/injection, schedule: Q01DX009 (ip), vehicle: suspension in saline) 101 % of control and 103 % of control; under setting [17], 91 % of control; (dose: 100.0 mg/kg/injection, schedule: Q01DX009 (ip), vehicle: suspension in saline) 100 % of control and 93 % of control; (dose: 200.0 mg/kg/injection, schedule: Q01DX009 (ip), vehicle: suspension in saline) 100 % of control and 105 % of control; (dose: 400.0 mg/kg/injection, schedule: Q01DX009 (ip), vehicle: saline) 94 % of control; (dose: 400.0 mg/kg/injection, schedule: Q01DX009 (ip), vehicle: suspension in saline) 101 % of control and 98 % of control.
For the compound `COC(=O)C(F)C(Br)C(=O)OC` (stereo unspecified), the T/C runs as follows: (dose: 12.5 mg/kg/injection, schedule: Q01DX009 (ip), vehicle: saline with Tween-80) 111 % of control and 103 % of control; (dose: 25.0 mg/kg/injection, schedule: Q01DX009 (ip), vehicle: saline with Tween-80) 112 % of control and 105 % of control; (dose: 50.0 mg/kg/injection, schedule: Q01DX009 (ip), vehicle: saline with Tween-80) 123 % of control and 114 % of control and 115 % of control.
As to `O=C1c2ccccc2CCC12OC2c1ccncc1` (stereo unspecified), the T/C is, setting by setting: (dose: 25.0 mg/kg/injection, schedule: Q01DX009 (ip), vehicle: Klucel (hydroxypropylcellulose) (HPC)) 107 % of control; under setting [4], 110 % of control; under setting [5], 100 % of control.
On to `CCN=c1cc2sc3cc(NCC)c(C)cc3nc-2cc1C`, for which the T/C is 97 % of control (dose: 12.5 mg/kg/injection, schedule: Q01DX009 (ip), vehicle: saline); 99 % of control (dose: 25.0 mg/kg/injection, schedule: Q01DX009 (ip), vehicle: saline); 101 % of control (dose: 50.0 mg/kg/injection, schedule: Q01DX009 (ip), vehicle: saline); 90 % of control under setting [17].
Turning to `Cc1ncc(C(N)=O)c2c1OC(C)(C)OC2`, the T/C by setting is: under setting [6], 100 % of control; under setting [7], 100 % of control; under setting [8], 99 % of control.
As to `C#CCN1CCCCC1`, the T/C reads like this: under setting [11], 105 % of control; under setting [12], 100 % of control; under setting [13], 100 % of control and 107 % of control.
For the compound `CSC1=NC(C)(C)N=C(Oc2cc(Cl)cc(Cl)c2)N1`, the T/C is 89 % of control under setting [16]; 94 % of control (dose: 120.0 mg/kg/injection, schedule: Q01DX005 (ip), vehicle: saline with Tween-80); 92 % of control (dose: 240.0 mg/kg/injection, schedule: Q01DX005 (ip), vehicle: saline with Tween-80).
Regarding `CC1=CC(O)C(O)C2(C)C1CC1OC(=O)C(OC(=O)CC(C)C)C3C(C)C(O)C4(O)OCC13C42` (stereo unspecified) (tested in a mixture with another compound), the T/C by setting is: (dose: 125.0 micrograms/kg/injection, schedule: Q01DX009 (ip), vehicle: other) 104 % of control; (dose: 250.0 micrograms/kg/injection, schedule: Q01DX009 (ip), vehicle: other) 102 % of control; (dose: 500.0 micrograms/kg/injection, schedule: Q01DX009 (ip), vehicle: other) 103 % of control; (dose: 1000.0 micrograms/kg/injection, schedule: Q01DX009 (ip), vehicle: other) 108 % of control.
As to `Oc1ccc(C/C=C/c2ccccc2)cc1O`, the T/C runs as follows: (dose: 2.5 mg/kg/injection, schedule: Q01DX009 (ip), vehicle: saline + alcohol) 104 % of control; (dose: 5.0 mg/kg/injection, schedule: Q01DX009 (ip), vehicle: saline + alcohol) 104 % of control; (dose: 10.0 mg/kg/injection, schedule: Q01DX009 (ip), vehicle: saline + alcohol) 101 % of control.

(Values after PubChem BioAssay AID330 (DTP/NCI, 2004).)
